Data reported in patent US8084481B2, “Substituted arylimidazolone and triazolone as inhibitors of vasopressin receptors” (Bayer Pharma Aktiengesellschaft, priority 2006, dated 2011).

Columns and labels:
[1] = biological target: T1, human V1a receptor (Homo sapiens, UniProt P37288); experiment: Cellular in vitro test for determination of the vasopressin receptor activity (aequorin luminescence, CHO cells), human V1a; format: cell-based; conditions: cell line transfected with the human V1a receptor, antagonism of [Arg8]-vasopressin, read-out: IC50 hV1a
T1 construct: expressed in transfected cells; host or cells: CHO K1 (ATCC), constitutively expressing a modified aequorin
Source text: (§1) B-1. Cellular In Vitro Test for Determination of the Vasopressin Receptor Activity
(§2) The identification of agonists and antagonists of the V1a- and V2-vasopressin receptors in man and the rat and the quantification of the activity of the compounds according to the invention are effected by means of recombinant cell lines. These cells are originally derived from the ovarian epithelial cells of the hamster (Chinese Hamster Ovary, CHO K1, ATCC: American Type Culture Collection, Manassas, Va. 20108, USA). The test cell lines constitutively express a modified form of the calcium-sensitive photoprotein aequorin, which after reconstitution with the cofactor coelenterazine emits light on an increase in the free calcium concentrations [Rizzuto R, Simpson A W, Brini M, Pozzan T, Nature 358, 325-327 (1992)]. In addition, the cells are stably transfected with human or rat V1a- or V2 receptors. In the case of the Gs-coupled V2 receptors, the cells are stably transfected with a further gene which codes for the promiscuous Gα16-Protein [Amatruda T T, Steele D A, Slepak V Z, Simon M I, Proceedings of the National Academy of Science USA 88, 5587-5591 (1991)]. The resulting vasopressin receptor test cells react to stimulation of the recombinantly expressed vasopressin receptors with an intracellular release of calcium ions, which can be quantified by the resulting aequorin luminescence with a suitable luminometer [Milligan G, Marshall F, Rees S, Trends in Pharmacological Sciences 17, 235-237 (1996)].
(§3) On the day before the text, the cells are plated out in culture medium (DMEM, 10% FCS, 2 mM glutamine, 10 mM HEPES) in 384-well microtitre plates and kept in a cell incubator (96% atmospheric humidity, 5% v/v CO2, 37° C.). On the test day, the culture medium is replaced by a Tyrode solution (140 mM NaCl, 5 mM KCl, 1 mM MgCl2, 2 mM CaCl2, 20 mM glucose, 20 mM HEPES) which in addition contains the cofactor coelenterazine (50 μM), and the microtitre plate is then incubated for a further 3-4 hours. The test substances in various concentrations are placed beforehand in the wells of the microtitre plate for 10 to 20 minutes, before the agonist [Arg^8]-vasopressin is added and the resulting light signal immediately measured in the luminometer. The IC50 values are calculated by means of the computer program GraphPad PRISM (Version 3.02).

[2] = biological target: T2, human V2 receptor (Homo sapiens, UniProt P30518); experiment: Cellular in vitro test for determination of the vasopressin receptor activity (aequorin luminescence, CHO cells), human V2; format: cell-based; conditions: cell line transfected with the human V2 receptor, antagonism of [Arg8]-vasopressin, read-out: IC50 hV2
T2 construct: expressed in transfected cells; host or cells: CHO K1 (ATCC), constitutively expressing a modified aequorin and stably co-transfected with promiscuous G-alpha-16
Source text: as §1, §2, §3

T1 sequence (P37288 whole entry): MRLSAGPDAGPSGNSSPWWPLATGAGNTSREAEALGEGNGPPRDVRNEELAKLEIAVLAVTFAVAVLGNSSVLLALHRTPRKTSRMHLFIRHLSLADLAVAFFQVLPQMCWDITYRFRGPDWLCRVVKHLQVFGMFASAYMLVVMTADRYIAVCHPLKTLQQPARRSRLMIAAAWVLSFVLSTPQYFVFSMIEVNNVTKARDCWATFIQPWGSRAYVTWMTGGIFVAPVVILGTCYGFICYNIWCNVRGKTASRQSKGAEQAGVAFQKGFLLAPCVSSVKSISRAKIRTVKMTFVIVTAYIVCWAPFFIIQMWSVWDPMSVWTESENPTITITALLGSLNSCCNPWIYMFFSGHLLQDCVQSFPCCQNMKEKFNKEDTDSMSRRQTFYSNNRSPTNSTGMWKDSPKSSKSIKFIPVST
T2 sequence (P30518 whole entry): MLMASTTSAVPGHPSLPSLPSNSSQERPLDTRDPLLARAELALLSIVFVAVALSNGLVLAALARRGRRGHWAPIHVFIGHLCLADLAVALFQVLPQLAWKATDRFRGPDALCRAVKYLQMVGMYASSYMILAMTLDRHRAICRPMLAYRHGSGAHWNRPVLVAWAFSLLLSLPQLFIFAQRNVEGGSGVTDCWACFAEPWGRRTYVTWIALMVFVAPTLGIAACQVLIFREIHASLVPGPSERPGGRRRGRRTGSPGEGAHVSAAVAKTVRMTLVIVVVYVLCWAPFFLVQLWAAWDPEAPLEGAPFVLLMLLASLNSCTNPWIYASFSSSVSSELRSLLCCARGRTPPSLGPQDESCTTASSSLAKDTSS

Structure (SMILES)	IC50 [1]	IC50 [2]
O=C(Cn1nc(-c2ccc(Cl)cc2)n(CC(O)C(F)(F)F)c1=O)N[C@@H]1C[C@@H]1c1cccc(C(F)(F)F)c1 (mixture of isomers) [Example 357, 2-[3-(4-chlorophenyl)-5-oxo-4-(3,3,3-trifluoro-2-hydroxypropyl)-4,5-dihydro-1H-1,2,4-triazol-1-yl]-N-{(1RS,2RS)-[2-(3-trifluoromethyl-phenyl)cyclopropyl]}-acetamide]	0.338 µM	0.005 µM
CC(C)(NC(=O)Cn1nc(-c2ccc(Cl)cc2)n(CC(O)C(F)(F)F)c1=O)c1cccc(C(F)(F)F)c1 (single isomer, unassigned) [Example 451, 2-[3-(4-chlorophenyl)-5-oxo-4-(3,3,3-trifluoro-2-hydroxypropyl)-4,5-dihydro-1H-1,2,4-triazol-1-yl]-N-{1-methyl-1-[3-(trifluoromethyl)phenyl]ethyl}-acetamide]	0.012 µM	0.002 µM
CCC(O)Cn1c(-c2ccc(Cl)cc2)nn(CC(=O)NC(C)(C)c2cccc(C(F)(F)F)c2)c1=O (single isomer, unassigned) [Example 485, 2-[3-(4-chlorophenyl)-5-oxo-4-(2-hydroxybutyl)-4,5-dihydro-1H-1,2,4-triazol-1-yl]-N-{1-methyl-1-[3-(trifluoromethyl)phenyl]ethyl}-acetamide]	0.012 µM	0.002 µM
CC(C)(NC(=O)Cn1cc(-c2ccc(Cl)cc2)n(CC(O)C(F)(F)F)c1=O)c1cccc(C(F)(F)F)c1 (single isomer, unassigned) [Example 501, 2-[4-(4-chlorophenyl)-2-oxo-3-(3,3,3-trifluoro-2-hydroxypropyl)-2,3-dihydro-1H-imidazol-1-yl]-N-{1-methyl-1-[3-(trifluoromethyl)phenyl]ethyl}-acetamide]	0.012 µM	0.003 µM
O=C(CCn1nc(-c2ccc(Cl)cc2)n(C2CC2)c1=O)NCc1cccc(C(F)(F)F)c1 [Example 25]	6.3 µM	0.18 µM
CC(NC(=O)Cn1nc(-c2ccc(Cl)cc2)n(C2CC2)c1=O)c1ccccc1C(F)(F)F (centres unmarked) [Example 28]	0.03 µM	0.18 µM
COc1ccc(Cn2c(-c3ccc(Cl)cc3)nn(CC(=O)NC(C)(C)c3cccc(C(F)(F)F)c3)c2=O)cc1 [Example 29]	0.17 µM	0.009 µM
O=C(Cn1nc(-c2ccc(Cl)cc2)n(CC2CCCCC2)c1=O)NCc1cccc(C(F)(F)F)c1 [Example 59]	1.1 µM	0.009 µM
CC(C)Cn1c(-c2ccc(Cl)s2)nn(CC(=O)NCc2ccccc2C(F)(F)F)c1=O [Example 63]	0.038 µM	> 10 µM
CC(C)(NC(=O)Cn1nc(-c2ccc(Cl)cc2)n(C2CC2)c1=O)c1cccc(C(F)(F)F)c1 [Example 75, 2-[3-(4-chlorophenyl)-4-cyclopropyl-5-oxo-4,5-dihydro-1H-1,2,4-triazol-1-yl]-N-{1-methyl-1-[3-(trifluoromethyl)phenyl]ethyl}acetamide]	0.39 µM	0.026 µM
CC(C)Cn1c(-c2ccc(Cl)s2)nn(CC(=O)NC(C)(C)c2cccc(C(F)(F)F)c2)c1=O [Example 84]	0.32 µM	0.008 µM
CCn1c(-c2ccc(Cl)cc2)nn(CC(=O)NCc2ccccc2C(F)(F)F)c1=O [Example 101]	0.094 µM	1.1 µM
O=C(Cn1nc(-c2ccc(Cl)cc2)n(Cc2ccc(F)cc2)c1=O)NCc1cccc(C(F)(F)F)c1 [Example 143]	0.96 µM	0.006 µM
O=C(Cn1nc(-c2ccc(Cl)cc2)n(Cc2ccccc2F)c1=O)NCc1cccc(C(F)(F)F)c1 [Example 145]	0.095 µM	0.007 µM
CC(C)Cn1c(-c2ccccc2-c2ccccc2)nn(CC(=O)NCc2cccc(C(F)(F)F)c2)c1=O [Example 151]	3.4 µM	0.93 µM
COc1ccc(Cn2c(-c3ccc(Cl)cc3)nn(CC(=O)NCc3cccc(C(F)(F)F)c3)c2=O)cc1 [Example 153, 2-[3-(4-chlorophenyl)-4-(4-methoxyphenylmethyl)-5-oxo-4,5-dihydro-1H-1,2,4-triazol-1-yl]-N-[3-(trifluoromethyl)phenylmethyl]acetamide]	0.042 µM	0.012 µM
COc1ccccc1CCNC(=O)Cn1nc(-c2ccc(Cl)cc2)n(C2CC2)c1=O [Example 159]	0.44 µM	0.42 µM
Cc1c(-c2ccc(Cl)cc2)n(C2CC2)c(=O)n1CC(=O)N[C@@H](C)c1cccc2ccccc12 [Example 207]	0.23 µM	0.063 µM
CCn1c(-c2ccc(Cl)cc2)cn(CC(=O)NC(C)c2cccc(C(F)(F)F)c2)c1=O (centres unmarked) [Example 209]	0.14 µM	0.26 µM
CC(C(=O)NC(C)(C)c1cccc(C(F)(F)F)c1)n1cc(-c2ccc(Cl)cc2)n(C2CC2)c1=O (centres unmarked) [Example 214]	6.3 µM	0.18 µM

Structure (SMILES)	IC50 [1]	IC50 [2]
COc1cc(Cl)ccc1-c1nn(CC(=O)NC(C)(C)c2cccc(C(F)(F)F)c2)c(=O)n1Cc1ccccc1F [Example 216, 2-[3-(4-chloro-2-methoxyphenyl)-4-(2-fluorobenzyl)-5-oxo-4,5-dihydro-1H-1,2,4-triazol-1-yl]-N-[1-methyl-1-(3-trifluoromethyl-phenyl)ethyl]-acetamide]	0.073 µM	0.006 µM
Cc1ccc(-c2nn(CC(=O)NC(C)(C)c3cccc(C(F)(F)F)c3)c(=O)n2Cc2ccccc2F)s1 [Example 219]	0.09 µM	0.009 µM
CC(C)(NC(=O)Cn1nc(-c2ccc(F)c(F)c2)n(Cc2ccccc2F)c1=O)c1cccc(C(F)(F)F)c1 [Example 221]	0.165 µM	0.03 µM
COc1cc(Cl)ccc1-c1nn(CC(=O)NCc2ccccc2C(F)(F)F)c(=O)n1Cc1ccccc1F [Example 227]	0.008 µM	0.037 µM
CC(C)(NC(=O)Cn1nc(-c2ccc(Cl)cc2Cl)n(C2CC2)c1=O)c1cccc(C(F)(F)F)c1 [Example 230]	0.783 µM	0.083 µM
Cc1cc(Cl)ccc1-c1nn(CC(=O)NCCc2ccccc2C(F)(F)F)c(=O)n1Cc1ccccc1F [Example 241]	0.076 µM	0.271 µM
C[C@H](NC(=O)Cn1nc(-c2ccc(Cl)s2)n(Cc2ccccc2F)c1=O)c1cccc(C(F)(F)F)c1 [Example 251]	0.037 µM	0.013 µM
CC(NC(=O)Cn1nc(-c2ccc(Cl)s2)n(Cc2ccccc2F)c1=O)c1nccc2ccccc12 (centres unmarked) [Example 252]	0.018 µM	0.447 µM
O=C(Cn1nc(-c2ccccc2O)n(Cc2cccc(F)c2)c1=O)NCCc1ccccc1C(F)(F)F [Example 260]	0.03 µM	0.154 µM
COc1cc(Cl)ccc1-c1nn(CC(=O)NC(C)(C)c2cccc(C(F)(F)F)c2)c(=O)n1Cc1cccc(F)c1 [Example 262]	0.157 µM	0.005 µM
CN(C)C(CNC(=O)Cn1nc(-c2ccc(Cl)cc2)n(Cc2ccccc2F)c1=O)c1ccccc1Cl (centres unmarked) [Example 265]	0.028 µM	0.749 µM
O=C(Cn1nc(-c2ccc(Cl)cc2)n(Cc2ccccc2F)c1=O)NC1(Cc2ccccc2C(F)(F)F)CC1 [Example 284]	0.009 µM	0.191 µM
O=C(Cn1nc(-c2ccc(Cl)cc2)n(Cc2ccccc2F)c1=O)NCc1c(C(F)(F)F)cccc1C(F)(F)F [Example 288]	0.761 µM	0.666 µM
O=C(Cn1nc(-c2ccc(Cl)cc2)n(Cc2ccccc2F)c1=O)NCc1cccc(C(F)(F)F)c1Cl [Example 296]	0.054 µM	0.009 µM
O=C(Cn1nc(-c2ccc(Cl)cc2)n(C2CC2)c1=O)NCC1(c2ccccc2F)CCCC1 [Example 305]	0.093 µM	0.784 µM
CC(C)(CNC(=O)Cn1nc(-c2ccc(Cl)cc2)n(C2CC2)c1=O)c1ccccc1C(F)(F)F [Example 313]	0.003 µM	1.02 µM
O=C(Cn1nc(-c2ccc(Cl)cc2)n(C2CC2)c1=O)NC1(Cc2ccccc2C(F)(F)F)CC1 [Example 320]	0.024 µM	1.52 µM
COC(=O)[C@@H](Cc1ccccc1C(F)(F)F)NC(=O)Cn1nc(-c2ccc(Cl)cc2)n(C2CC2)c1=O [Example 321]	0.05 µM	0.51 µM
Cc1c(CNC(=O)Cn2nc(-c3ccc(Cl)cc3)n(C3CC3)c2=O)cccc1C(F)(F)F [Example 325]	0.107 µM	0.028 µM
O=C(Cn1nc(-c2ccc(Cl)cc2)n(C2CC2)c1=O)NC(C(=O)NC1CC1)c1ccccc1C(F)(F)F (centres unmarked) [Example 340]	0.039 µM	1.15 µM
